compound,measurement,setting,value
C[C@@H]1CC[C@H]2[C@@H](C)C(=O)O[C@@H]3O[C@@]4(C)CC[C@@H]1[C@]32OO4,solubility (mole fraction),"in 2-butanone, 284.15 K",0.0163
same,solubility (mole fraction),"in 2-butanone, 289.15 K",0.0212
same,solubility (mole fraction),"in 2-butanone, 295.15 K",0.0292
same,solubility (mole fraction),"in 2-butanone, 298.15 K",0.0337
same,solubility (mole fraction),"in 2-butanone, 304.15 K",0.046
same,solubility (mole fraction),"in 2-butanone, 309.15 K",0.0585
same,solubility (mole fraction),"in 2-butanone, 314.15 K",0.0762
same,solubility (mole fraction),"in 2-butanone, 319.15 K",0.0919
same,solubility (mole fraction),"in 2-butanone, 323.15 K",0.117
same,solubility (mole fraction),"in MTBE, 284.15 K",0.00109
same,solubility (mole fraction),"in MTBE, 289.15 K",0.00154
same,solubility (mole fraction),"in MTBE, 295.15 K",0.00234
same,solubility (mole fraction),"in MTBE, 298.15 K",0.00285
same,solubility (mole fraction),"in MTBE, 304.15 K",0.00421
same,solubility (mole fraction),"in MTBE, 309.15 K",0.00579
same,solubility (mole fraction),"in MTBE, 314.15 K",0.0079
same,solubility (mole fraction),"in MTBE, 319.15 K",0.0107
same,solubility (mole fraction),"in MTBE, 323.15 K",0.0136
same,solubility (mole fraction),"in acetone, 284.15 K",0.00405
same,solubility (mole fraction),"in acetone, 289.15 K",0.0053
same,solubility (mole fraction),"in acetone, 295.15 K",0.0073
same,solubility (mole fraction),"in acetone, 298.15 K",0.00848
same,solubility (mole fraction),"in acetone, 304.15 K",0.0115
same,solubility (mole fraction),"in acetone, 309.15 K",0.0147
same,solubility (mole fraction),"in acetone, 314.15 K",0.0187
same,solubility (mole fraction),"in acetone, 319.15 K",0.0236
same,solubility (mole fraction),"in acetone, 323.15 K",0.0284
same,solubility (mole fraction),"in acetonitrile, 284.15 K",0.00084
same,solubility (mole fraction),"in acetonitrile, 289.15 K",0.00112
same,solubility (mole fraction),"in acetonitrile, 295.15 K",0.00157
same,solubility (mole fraction),"in acetonitrile, 298.15 K",0.00184
same,solubility (mole fraction),"in acetonitrile, 304.15 K",0.00254
same,solubility (mole fraction),"in acetonitrile, 309.15 K",0.00329
same,solubility (mole fraction),"in acetonitrile, 314.15 K",0.00424
same,solubility (mole fraction),"in acetonitrile, 319.15 K",0.00544
same,solubility (mole fraction),"in acetonitrile, 323.15 K",0.00661
same,solubility (mole fraction),"in ethanol, 284.15 K",0.00236
same,solubility (mole fraction),"in ethanol, 289.15 K",0.00305
same,solubility (mole fraction),"in ethanol, 295.15 K",0.00412
same,solubility (mole fraction),"in ethanol, 298.15 K",0.00475
same,solubility (mole fraction),"in ethanol, 304.15 K",0.00631
same,solubility (mole fraction),"in ethanol, 309.15 K",0.00796
same,solubility (mole fraction),"in ethanol, 314.15 K",0.01
same,solubility (mole fraction),"in ethanol, 319.15 K",0.0125
same,solubility (mole fraction),"in ethanol, 323.15 K",0.0149
same,solubility (mole fraction),"in ethyl acetate, 284.15 K",0.00557
same,solubility (mole fraction),"in ethyl acetate, 289.15 K",0.00784
same,solubility (mole fraction),"in ethyl acetate, 295.15 K",0.0118
same,solubility (mole fraction),"in ethyl acetate, 298.15 K",0.0142
same,solubility (mole fraction),"in ethyl acetate, 304.15 K",0.0208
same,solubility (mole fraction),"in ethyl acetate, 309.15 K",0.0283
same,solubility (mole fraction),"in ethyl acetate, 314.15 K",0.0383
same,solubility (mole fraction),"in ethyl acetate, 319.15 K",0.0514
same,solubility (mole fraction),"in ethyl acetate, 323.15 K",0.0647
same,solubility (mole fraction),"in isopropyl acetate, 284.15 K",0.00683
same,solubility (mole fraction),"in isopropyl acetate, 289.15 K",0.00838
same,solubility (mole fraction),"in isopropyl acetate, 295.15 K",0.0107
same,solubility (mole fraction),"in isopropyl acetate, 298.15 K",0.012
same,solubility (mole fraction),"in isopropyl acetate, 304.15 K",0.015
same,solubility (mole fraction),"in isopropyl acetate, 309.15 K",0.0182
same,solubility (mole fraction),"in isopropyl acetate, 314.15 K",0.0218
same,solubility (mole fraction),"in isopropyl acetate, 319.15 K",0.0261
same,solubility (mole fraction),"in isopropyl acetate, 323.15 K",0.0301
same,solubility (mole fraction),"in methanol, 284.15 K",0.00056
same,solubility (mole fraction),"in methanol, 289.15 K",0.00078
same,solubility (mole fraction),"in methanol, 295.15 K",0.00117
same,solubility (mole fraction),"in methanol, 298.15 K",0.00142
same,solubility (mole fraction),"in methanol, 304.15 K",0.00207
same,solubility (mole fraction),"in methanol, 309.15 K",0.00281
same,solubility (mole fraction),"in methanol, 314.15 K",0.0038
same,solubility (mole fraction),"in methanol, 319.15 K",0.00508
same,solubility (mole fraction),"in methanol, 323.15 K",0.00639
same,solubility (mole fraction),"in n-butanol, 284.15 K",0.00085
same,solubility (mole fraction),"in n-butanol, 289.15 K",0.00127
same,solubility (mole fraction),"in n-butanol, 295.15 K",0.00203
same,solubility (mole fraction),"in n-butanol, 298.15 K",0.00253
same,solubility (mole fraction),"in n-butanol, 304.15 K",0.00394
same,solubility (mole fraction),"in n-butanol, 309.15 K",0.00563
same,solubility (mole fraction),"in n-butanol, 314.15 K",0.00799
same,solubility (mole fraction),"in n-butanol, 319.15 K",0.0112
same,solubility (mole fraction),"in n-butanol, 323.15 K",0.0147
same,solubility (mole fraction),"in n-heptane, 284.15 K",5.1e-05
same,solubility (mole fraction),"in n-heptane, 289.15 K",7.2e-05
same,solubility (mole fraction),"in n-heptane, 295.15 K",0.000113
same,solubility (mole fraction),"in n-heptane, 298.15 K",0.00013
same,solubility (mole fraction),"in n-heptane, 304.15 K",0.000202
same,solubility (mole fraction),"in n-heptane, 309.15 K",0.000282
same,solubility (mole fraction),"in n-heptane, 314.15 K",0.000383
same,solubility (mole fraction),"in n-heptane, 319.15 K",0.000531
same,solubility (mole fraction),"in n-heptane, 323.15 K",0.000684
same,solubility (mole fraction),"in n-hexane, 284.15 K",5e-05
same,solubility (mole fraction),"in n-hexane, 289.15 K",7e-05
same,solubility (mole fraction),"in n-hexane, 295.15 K",0.000111
same,solubility (mole fraction),"in n-hexane, 298.15 K",0.000132
same,solubility (mole fraction),"in n-hexane, 304.15 K",0.000201
same,solubility (mole fraction),"in n-hexane, 309.15 K",0.00028
same,solubility (mole fraction),"in n-hexane, 314.15 K",0.000381
same,solubility (mole fraction),"in n-hexane, 319.15 K",0.000534
same,solubility (mole fraction),"in n-hexane, 323.15 K",0.000681
same,solubility (mole fraction),"in toluene, 284.15 K",0.017
same,solubility (mole fraction),"in toluene, 289.15 K",0.0226
same,solubility (mole fraction),"in toluene, 295.15 K",0.0316
same,solubility (mole fraction),"in toluene, 298.15 K",0.0369
same,solubility (mole fraction),"in toluene, 304.15 K",0.0507
same,solubility (mole fraction),"in toluene, 309.15 K",0.0656
same,solubility (mole fraction),"in toluene, 314.15 K",0.0843
same,solubility (mole fraction),"in toluene, 319.15 K",0.108
same,solubility (mole fraction),"in toluene, 323.15 K",0.131

# — BigSolDB 2.1
